Patent US11214803B2, “Modulators of YAP1 expression” (Ionis Pharmaceuticals, Inc., priority 2019, dated 2022)
Strand notation (5' to 3'): a small letter for the sugar, then the base; units joined by * are phosphorothioate-linked, units joined directly phosphodiester-linked; [ ] holds rarer units or linkages, { } end groups; capitals alone tell only the bases. k = constrained ethyl (cEt); [5mC] = 5-methylcytosine; d = 2'-deoxy (DNA)

System: Yap1 mRNA
Assay: Antisense inhibition of human Yap1 in A-431 cells by cEt gapmers, single dose (Example 2, RTS4814)
Type: cell-based
Summary of the method: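 Free uptake, 2,000 nM, ~48 h, A-431 at 5,000 cells/well. Readout: RT-qPCR (RTS4814), RIBOGREEN-normalized, % UTC. 16-mer 3-10-3 cEt gapmers, full PS backbone, all C as 5-methylcytosine.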

[1] = Table 18, A-431 cells, 5,000 cells per well, free uptake, 2,000 nM modified oligonucleotide, approx. 48 hours, RTS4814, normalized to RIBOGREEN, Yap1 mRNA as percent of untreated control
[2] = Table 33, Yap1 mRNA, percent of untreated control, 3-10-3 cEt gapmers targeting SEQ ID NO.: 1, and 2
[3] = Yap1 mRNA as percent of untreated control, A-431 cells, 3-10-3 cEt gapmers targeting SEQ ID NO.: 1, and 2, Table 30
[4] = Yap1 mRNA as percent of untreated control, A-431 cells, 3-10-3 cEt gapmers targeting SEQ ID NO.: 1, and 2, Table 31
[5] = Table 6, A-431 cells, 5,000 cells per well, free uptake, 2,000 nM modified oligonucleotide, approx. 48 hours, RTS4814, normalized to RIBOGREEN, Yap1 mRNA relative to untreated control cells
[6] = Table 24, Yap1 mRNA as percent of untreated control, 3-10-3 cEt gapmers targeting SEQ ID NO.: 1, and 2
[7] = Table 21, Yap1 mRNA, percent of untreated control, 3-10-3 cEt gapmers targeting SEQ ID NO.: 1 and 2
[8] = Table 25, Yap1 mRNA as percent of untreated control, 3-10-3 cEt gapmers targeting SEQ ID NO.: 1, and 2
[9] = Table 23, Yap1 mRNA as percent of untreated control, 3-10-3 cEt gapmers, single dose
[10] = Table 20, Yap1 mRNA, percent of untreated control, 3-10-3 cEt gapmers targeting SEQ ID NO.: 1 and 2
[11] = A-431 cells, 5,000 cells per well, free uptake, 2,000 nM modified oligonucleotide, approx. 48 hours, RTS4814, normalized to RIBOGREEN, Table 4, asterisk (*) = targets amplicon region of primer probe set
[12] = Table 5, A-431 cells, 5,000 cells per well, free uptake, 2,000 nM modified oligonucleotide, approx. 48 hours, RTS4814, normalized to RIBOGREEN, Yap1 mRNA relative to untreated control cells
[13] = Table 32, Yap1 mRNA, percent of untreated control, 3-10-3 cEt gapmers targeting SEQ ID NO.: 1, and 2

“1075172 (antisense k[5mC]*kT*kT*dT*dA*d[5mC]*dA*dT*dG*dA*dA*d[5mC]*dT*kG*kA*kT) [Compound 1075172]” was tested, and the “YAP1 (% UTC)” value [1] was 14 % UTC.

With “1075795 (kG*kT*kA*dA*dT*dT*dA*dT*dA*dT*dA*d[5mC]*d[5mC]*k[5mC]*kA*k[5mC]; antisense) [compound 1075795]” the “YAP1 (% UTC)” value [2] was 66 % UTC.

In the case of “1076368 (antisense k[5mC]*kA*kT*dT*dT*dT*dA*dT*dG*dT*dA*dA*dG*kG*k[5mC]*k[5mC]) [compound 1076368]”, the “YAP1 (% UTC)” value [3] is reported as 15 % UTC.

In the case of “1075441 (antisense kG*kA*kA*dT*dT*dA*dA*dA*dG*d[5mC]*dA*dG*dT*kG*k[5mC]*k[5mC]) [compound 1075441]”, the “YAP1 (% UTC)” value [4] is reported as 24 % UTC.

“716471 (k[5mC]*k[5mC]*kT*dA*d[5mC]*dT*d[5mC]*dA*d[5mC]*dT*dG*dA*dA*kT*kT*k[5mC]; antisense) [Compound 716471]” was tested, and the “YAP1 (% UTC)” value [5] was 48 % UTC.

“1075306 (kT*kA*kA*dA*d[5mC]*dG*dA*dA*dA*d[5mC]*dA*d[5mC]*dG*kG*kG*kT; antisense) [Compound 1075306]” was tested, and the “YAP1 (% UTC)” value [6] was 30 % UTC.

With “1075859 (antisense kA*k[5mC]*kT*dT*dA*dT*d[5mC]*dA*d[5mC]*dT*d[5mC]*dT*dG*k[5mC]*k[5mC]*k[5mC]) [compound 1075859]” the “YAP1 (% UTC)” value [2] was 20 % UTC.

For “1074567 (antisense kA*kA*k[5mC]*d[5mC]*dT*dA*d[5mC]*dT*d[5mC]*dA*d[5mC]*dT*dG*kA*kA*kT) [Compound 1074567]”, the “YAP1 (% UTC)” value [7] was 38 % UTC.

For “1076139 (k[5mC]*kG*kA*dA*dA*dA*dA*dA*dG*d[5mC]*d[5mC]*dA*dA*k[5mC]*kA*kA; antisense) [Compound 1076139]”, the “YAP1 (% UTC)” value [8] was 18 % UTC.

For “1075977 (kG*kA*kT*dT*dA*dA*dA*dA*dG*dT*d[5mC]*dG*dG*kG*k[5mC]*k[5mC]; antisense) [Compound 1075977]”, the “YAP1 (% UTC)” value [9] was 73 % UTC.

For “1076042 (k[5mC]*kT*kT*dA*dA*dG*d[5mC]*dA*dA*dG*dA*dG*dT*k[5mC]*k[5mC]*kA; antisense) [Compound 1076042]”, the “YAP1 (% UTC)” value [6] was 35 % UTC.

“1074212 (antisense kG*k[5mC]*kT*dT*d[5mC]*d[5mC]*dG*dG*dA*dG*d[5mC]*d[5mC]*dT*k[5mC]*kA*kT) [Compound 1074212]” was tested, and the “YAP1 (% UTC)” value [1] was 53 % UTC.

“1075723 (kT*kT*kA*dT*d[5mC]*d[5mC]*dT*dA*dT*d[5mC]*d[5mC]*d[5mC]*dT*kG*kG*kT; antisense) [Compound 1075723]” was tested, and the “YAP1 (% UTC)” value [8] was 32 % UTC.

“1075091 (kA*kA*kA*d[5mC]*dA*dA*d[5mC]*dG*dA*dA*dT*dG*dA*kT*kT*kG; antisense) [compound 1075091]” was tested, and the “YAP1 (% UTC)” value [2] was 65 % UTC.

With “1075594 (kT*kG*kA*dG*dA*dA*dT*dA*dT*dT*d[5mC]*d[5mC]*dT*k[5mC]*k[5mC]*k[5mC]; antisense) [Compound 1075594]” the “YAP1 (% UTC)” value [6] was 64 % UTC.

With “1076201 (k[5mC]*kT*kA*dA*dA*dA*dA*dG*dA*d[5mC]*dA*dG*dG*kG*k[5mC]*k[5mC]; antisense) [Compound 1076201]” the “YAP1 (% UTC)” value [9] was 99 % UTC.

“1075273 (antisense kA*kA*kA*dT*dT*dA*dT*dG*dG*dT*d[5mC]*dA*dG*kG*k[5mC]*kT) [Compound 1075273]” was tested, and the “YAP1 (% UTC)” value [9] was 18 % UTC.

For “1075376 (antisense k[5mC]*k[5mC]*kT*dA*dA*dA*dT*dA*dT*d[5mC]*dA*dA*d[5mC]*kT*k[5mC]*k[5mC]) [compound 1075376]”, the “YAP1 (% UTC)” value [3] was 72 % UTC.

With “1074758 (k[5mC]*kA*kG*dT*dT*dA*dA*dG*d[5mC]*dA*d[5mC]*dT*dT*kT*kT*kA; antisense) [Compound 1074758]” the “YAP1 (% UTC)” value [10] was 4 % UTC.

For “1074820 (kA*kA*kG*dT*dG*dT*dT*dA*dA*dG*d[5mC]*dA*d[5mC]*kT*kG*kA; antisense) [Compound 1074820]”, the “YAP1 (% UTC)” value [1] was 85 % UTC.

With “1075051 (antisense kA*kA*kT*dA*dA*dA*d[5mC]*dA*dA*d[5mC]*d[5mC]*d[5mC]*dA*kA*k[5mC]*kG) [Compound 1075051]” the “YAP1 (% UTC)” value [8] was 56 % UTC.

In the case of “1074793 (kA*kA*kT*d[5mC]*dA*dA*dT*dG*dT*dG*d[5mC]*dT*d[5mC]*k[5mC]*kA*kT; antisense) [Compound 1074793]”, the “YAP1 (% UTC)” value [9] is reported as 9 % UTC.

“716400 (kT*kA*kA*d[5mC]*dT*d[5mC]*d[5mC]*dT*dG*dA*d[5mC]*dA*dT*kT*kT*kT; antisense) [Compound 716400]” was tested, and the “YAP1 (% UTC)” value [11] was 106 % UTC.

In the case of “716482 (k[5mC]*kT*kA*dT*d[5mC]*d[5mC]*dA*dG*dG*dG*dT*d[5mC]*dA*kA*kT*kT; antisense) [Compound 716482]”, the “YAP1 (% UTC)” value [12] is reported as 83 % UTC.

“1074898 (antisense kA*kA*k[5mC]*dT*dT*dT*dT*dG*dG*dG*d[5mC]*dA*dA*kA*kG*kT) [compound 1074898]” was tested, and the “YAP1 (% UTC)” value [13] was 101 % UTC.

With “1075538 (kG*kA*kA*dT*dT*dG*dG*dA*dA*d[5mC]*dA*d[5mC]*d[5mC]*kT*k[5mC]*kA; antisense) [compound 1075538]” the “YAP1 (% UTC)” value [13] was 66 % UTC.

For “716496 (kG*kA*kA*dG*dA*dG*dA*dT*dT*dT*dT*dA*dT*kG*k[5mC]*k[5mC]; antisense) [Compound 716496]”, the “YAP1 (% UTC)” value [11] was 19 % UTC.

For “1074258 (antisense kA*kT*kA*dT*dT*d[5mC]*dT*dG*d[5mC]*dT*dG*d[5mC]*dA*k[5mC]*kT*kG) [compound 1074258]”, the “YAP1 (% UTC)” value [13] was 36 % UTC.

“716526 (antisense kT*k[5mC]*kA*dA*dA*dG*d[5mC]*dA*d[5mC]*dT*dG*dT*dG*k[5mC]*k[5mC]*kA) [Compound 716526]” was tested, and the “YAP1 (% UTC)” value [11] was 88 % UTC.

In the case of “1075697 (kA*kA*kT*dA*dA*dT*d[5mC]*d[5mC]*dA*dT*dG*d[5mC]*dT*kT*kG*k[5mC]; antisense) [compound 1075697]”, the “YAP1 (% UTC)” value [4] is reported as 16 % UTC.

With “1075879 (kG*kA*kA*dT*dA*dA*dA*dG*dA*dA*dG*dT*d[5mC]*kA*k[5mC]*k[5mC]; antisense) [Compound 1075879]” the “YAP1 (% UTC)” value [7] was 77 % UTC.

In the case of “1076112 (kA*kT*kT*d[5mC]*dA*dA*dA*dA*d[5mC]*d[5mC]*dA*d[5mC]*dG*kG*kA*kA; antisense) [compound 1076112]”, the “YAP1 (% UTC)” value [3] is reported as 98 % UTC.

“1076040 (k[5mC]*kT*kT*dA*dA*dA*dG*dA*dA*dG*d[5mC]*dA*d[5mC]*kT*kA*kG; antisense) [Compound 1076040]” was tested, and the “YAP1 (% UTC)” value (Table 22, Yap1 mRNA as percent of untreated control, 3-10-3 cEt gapmers, single dose) was 105 % UTC.

“716363 (k[5mC]*kG*kG*dA*d[5mC]*dG*dG*d[5mC]*dG*dG*dG*d[5mC]*d[5mC]*k[5mC]*kT*kG; antisense) [Compound 716363]” was tested, and the “YAP1 (% UTC)” value [5] was 103 % UTC.

For “1074673 (antisense kA*kG*kG*d[5mC]*dA*d[5mC]*dT*d[5mC]*d[5mC]*dT*dT*d[5mC]*d[5mC]*kA*kA*kG) [compound 1074673]”, the “YAP1 (% UTC)” value [4] was 43 % UTC.

For “1076486 (antisense kG*kA*kA*dA*d[5mC]*dG*dA*dA*dA*d[5mC]*dG*dG*dG*kA*kA*kA) [Compound 1076486]”, the “YAP1 (% UTC)” value [10] was 5 % UTC.

For “716376 (k[5mC]*kG*kA*dA*dG*dA*dT*dG*d[5mC]*dT*dG*dA*dG*k[5mC]*kT*kG; antisense) [Compound 716376]”, the “YAP1 (% UTC)” value [11] was 35 % UTC.

“1075979 (k[5mC]*kA*kT*dA*dA*dT*d[5mC]*d[5mC]*dA*d[5mC]*dT*dA*dT*kG*k[5mC]*kA; antisense) [Compound 1075979]” was tested, and the “YAP1 (% UTC)” value [8] was 18 % UTC.

“716514 (antisense kG*k[5mC]*kT*dG*dA*dT*dA*dT*dA*dT*dA*dA*dG*kA*kT*kA) [Compound 716514]” was tested, and the “YAP1 (% UTC)” value [11] was 68 % UTC.

“716377 (kG*kG*kT*dA*dT*d[5mC]*dT*d[5mC]*dA*dA*dA*dA*dG*kA*kA*kG; antisense) [Compound 716377]” was tested, and the “YAP1 (% UTC)” value [12] was 76 % UTC.

In the case of “716450 (kA*kA*k[5mC]*dA*dG*dA*dT*dT*d[5mC]*dA*d[5mC]*dT*dA*kA*kT*kA; antisense) [Compound 716450]”, the “YAP1 (% UTC)” value [5] is reported as 83 % UTC.

In the case of “1075237 (antisense kG*k[5mC]*kT*dG*dA*dA*dA*dA*dT*dG*d[5mC]*dT*dA*kA*k[5mC]*kT) [Compound 1075237]”, the “YAP1 (% UTC)” value (Table 19, A-431 cells, 5,000 cells per well, free uptake, 2,000 nM modified oligonucleotide, approx. 48 hours, RTS4814, normalized to RIBOGREEN, Yap1 mRNA as percent of untreated control) is reported as 105 % UTC.

“1075751 (kG*kA*kG*dG*dA*dA*d[5mC]*dA*dA*dG*dA*dT*d[5mC]*kT*k[5mC]*kA; antisense) [Compound 1075751]” was tested, and the “YAP1 (% UTC)” value [7] was 72 % UTC.

In the case of “1075620 (kG*kA*kT*dG*dA*dA*dG*dA*dA*dT*d[5mC]*dT*dA*kT*kA*kG; antisense) [Compound 1075620]”, the “YAP1 (% UTC)” value [1] is reported as 88 % UTC.

For “1074628 (antisense kG*k[5mC]*k[5mC]*dT*dG*dT*dT*dA*dT*dG*dA*dA*d[5mC]*k[5mC]*k[5mC]*kT) [Compound 1074628]”, the “YAP1 (% UTC)” value [1] was 5 % UTC.
